Measured values: patent US9334267B2, “RAF inhibitor compounds” (Deciphera Pharmaceuticals, LLC, priority 2012, dated 2016)

Columns and labels:
Sk-Mel-2 cells = test: SK-Mel-2 cell proliferation assay (resazurin); type: cell-based; details: Homo sapiens, N-Ras mutation B-Raf wild type, read-out: Cell Proliferation Inhibition IC50, nM SK-Mel-2
HT-29 cells = test: HT-29 cell proliferation assay (resazurin); type: cell-based; details: Homo sapiens, V600E mutation, read-out: Cell Proliferation Inhibition IC50, nM HT-29
Experimental: HT-29 cells (catalog #HTB-38) are obtained from the American Type Culture Collection (ATCC, Manassas, Va.). Briefly, cells are grown in McCoy's 5A supplemented with 10% characterized fetal bovine serum (Invitrogen, Carlsbad, Calif.), and 1% Penicillin/Streptomycin/L-Glutamine at 37 degrees Celsius, 5% CO2, and 95% humidity. Cells are allowed to expand until reaching 75-90% confluency at which point they are subcultured or harvested for assay use. A serial dilution of test compound is dispensed into a 384-well black clear bottom plate in triplicate. One thousand two-hundred fifty cells are added per well in 50 μL complete growth medium in the 384-well plate. Plates are incubated for 67 hours at 37 degrees Celsius, 5% CO2, and 95% humidity. At the end of the incubation period, 10 μL of a 440 μM solution of resazurin (Sigma, St. Louis, Mo.) in PBS is added to each well of the plate and plates are incubated for an additional 5 hours at 37 degrees Celsius, 5% CO2, and 95% humidity. Plates are read on a Synergy2 reader (Biotek, Winooski, Vt.) using an excitation of 540 nm and an emission of 600 nm. Data is analyzed using Prism software (Graphpad, San Diego, Calif.) to calculate IC50 values.
The A375, HT-29, and Colo-205 cells (ATCC) harbor a V600E mutation.

HCT-116 cells = test: HCT-116 cell proliferation assay (resazurin); type: cell-based; details: Homo sapiens, K-Ras mutation B-Raf wild type, read-out: Cell Proliferation Inhibition IC50, nM HCT-116
human wild type C-Raf = target: T1, human wild type C-Raf (Homo sapiens, UniProt P04049); test: Enzymatic assay of C-Raf kinase activity (Raf/MEK1 ATPase, coupled PK/LDH, A340); type: biochemical; details: read-out: Enzyme IC50, nM C-Raf
T1 construct: made in house
Experimental: Test compounds are evaluated for their inhibitory activities against one or more of human wild type B-Raf, human wild type C-Raf, human B-Raf V600E, human B-Raf V600E+T529I or human B-Raf V600E+G468A. T529I is a threonine to isoleucine B-Raf gatekeeper mutation and G468A is a B-Raf secondary mutation at G1403C in exon 11. The enzymatic assays of B-Raf, C-Raf and B-Raf mutations evaluate a property of Raf and MEK1 complex, which in the presence of ATP, catalyzes an enhanced ATP hydrolysis (Rominger, et al, Arch. Biochem. Biophys. 2007, 464: 130-137; US Patent Publication No. 2006/0211073). The ADP formed is monitored by the well-known coupled PK/LDH (pyruvate kinase/lactate dehydrogenase) system in the form of NADH oxidation, which can be monitored and detected spectrophotometrically by absorbance at 340 nm (A340; for principal of the method see Schindler et al, Science, 2000, 289: 1938-1942). Raf activated MEK1 ATPase activity is a property shared by all forms of Raf proteins.
Test compounds are evaluated for their inhibitory activities against one or more of wild type B-Raf, wild type C-Raf, B-Raf V600E, B-Raf V600E+T529I and B-Raf V600E+G468A. T529I is a B-Raf gatekeeper mutation and G468A is a B-Raf secondary mutation. The enzymatic assays of B-Raf, C-Raf and B-Raf mutations evaluate a property of Raf and MEK1 complex, which in the presence of ATP, catalyzes an enhanced ATP hydrolysis (Rominger, et al, Arch. Biochem. Biophys. 2007, 464: 130-137). The ADP formed is monitored by the well-known coupled PK/LDH (pyruvate kinase/lactate dehydrogenase) system in the form of NADH oxidation, which can be monitored and detected by absorbance at 340 nm (A340; for principal of the method see Schindler et al, Science, 2000, 289: 1938-1942). Raf activated MEK1 ATPase activity is a property shared by all forms of Raf proteins. In the B-Raf wild type enzymatic assay, the reaction mixture contains 1.2 nM B-Raf, 30 nM MEK1, 1000 uM ATP, 3.5 units (per 100 ul) of PK, 5 units (per 100 ul) of LDH, 1 mM phosphoenol pyruvate (PEP), and 280 uM of NADH. In the C-Raf assay, the reaction mixture contains 0.6 nM C-Raf, 26 nM MEK1, 2000 uM ATP, and the same amount of PK, LDH, PEP and NADH as above. In the B-Raf V600E assay, the reaction mixture contains […] B-Raf V600E, 26 nM MEK1, 200 uM ATP and the same amount of PK, LDH, PEP and NADH as above. In the B-RafV600E+T529I assay, the reaction mixture contains 6.2 nM B-Raf V600E+T529I, 30 nM MEK1, 200 uM ATP and the same amount of PK, LDH, PEP and NADH as above. In the B-Raf V600E+G468A assay, the reaction mixture contains 3.5 nM B-Raf, 30 nM MEK1, 200 uM ATP and the same amount of PK, LDH, PEP and NADH as above. All assays are started by mixing the above mixture with test compound and monitoring at A340 continuously for approximately 5 hr. […] In the aforementioned assays, the enzyme constructs can be screened prior to or after cleavage of the N-terminal purification tag.

human wild type c-KIT = target: T2, human wild type c-KIT (Homo sapiens, UniProt P10721); test: Enzymatic assay of c-Kit kinase activity (poly E4Y phosphorylation, coupled PK/LDH); type: biochemical
T2 construct: GST (N); made in house
Description: c-Kit is an important oncogene, and its overexpression and genetic mutations often occur in melanoma and gastrointestinal stromal tumor (GIST) patients. In the c-Kit enzymatic assay, the phosphorylation of poly E4Y by ATP catalyzed by human c-Kit is monitored spectrophotometrically. The ADP produced from the kinase reaction is coupled to pyruvate kinase/lactate dehydrogenase (PK/LDH) reactions where NAD is formed from pyruvate and NADH. NADH can be detected by absorbance at 340 nm, as described above for enzymatic assays of kinase activities of B-Raf, C-Raf and B-Raf mutations.
The assay reaction mixture includes 6 nM human wild type c-KIT, 1 mg/mL Poly (Glu,Tyr) (Sigma), 1 mM Phosphoenol-pyruvate, 280 μM NADH, 5 U/3.5 U (per 100 ul) Pyruvate Kinase/Lactate Dehydrogenase, 85 mM Tris, pH 7.5, 17 mM MgCl2, 0.0042% Triton® X-100, 0.005% BSA, 1% DMSO. Test compound is incubated with the reaction mixture for 0.5 hour before adding 200 μM ATP to start the reaction at 30° C.

T1 sequence (P04049 whole entry): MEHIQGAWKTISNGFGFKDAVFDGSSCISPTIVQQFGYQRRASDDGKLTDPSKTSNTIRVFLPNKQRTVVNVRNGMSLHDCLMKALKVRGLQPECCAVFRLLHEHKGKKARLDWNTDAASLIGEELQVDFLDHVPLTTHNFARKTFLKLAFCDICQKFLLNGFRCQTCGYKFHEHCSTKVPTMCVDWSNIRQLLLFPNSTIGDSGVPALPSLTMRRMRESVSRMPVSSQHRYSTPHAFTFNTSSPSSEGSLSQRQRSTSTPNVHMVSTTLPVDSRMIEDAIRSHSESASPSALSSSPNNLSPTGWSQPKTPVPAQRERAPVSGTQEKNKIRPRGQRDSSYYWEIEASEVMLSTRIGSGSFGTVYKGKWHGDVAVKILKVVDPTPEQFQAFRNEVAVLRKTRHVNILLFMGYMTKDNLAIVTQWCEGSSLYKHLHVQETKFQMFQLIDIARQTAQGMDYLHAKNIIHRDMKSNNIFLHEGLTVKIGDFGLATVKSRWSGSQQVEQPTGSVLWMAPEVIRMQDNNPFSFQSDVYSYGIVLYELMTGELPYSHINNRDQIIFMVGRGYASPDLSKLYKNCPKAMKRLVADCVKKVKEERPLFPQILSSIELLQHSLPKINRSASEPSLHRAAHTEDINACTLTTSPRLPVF
T2 sequence (P10721 26-976): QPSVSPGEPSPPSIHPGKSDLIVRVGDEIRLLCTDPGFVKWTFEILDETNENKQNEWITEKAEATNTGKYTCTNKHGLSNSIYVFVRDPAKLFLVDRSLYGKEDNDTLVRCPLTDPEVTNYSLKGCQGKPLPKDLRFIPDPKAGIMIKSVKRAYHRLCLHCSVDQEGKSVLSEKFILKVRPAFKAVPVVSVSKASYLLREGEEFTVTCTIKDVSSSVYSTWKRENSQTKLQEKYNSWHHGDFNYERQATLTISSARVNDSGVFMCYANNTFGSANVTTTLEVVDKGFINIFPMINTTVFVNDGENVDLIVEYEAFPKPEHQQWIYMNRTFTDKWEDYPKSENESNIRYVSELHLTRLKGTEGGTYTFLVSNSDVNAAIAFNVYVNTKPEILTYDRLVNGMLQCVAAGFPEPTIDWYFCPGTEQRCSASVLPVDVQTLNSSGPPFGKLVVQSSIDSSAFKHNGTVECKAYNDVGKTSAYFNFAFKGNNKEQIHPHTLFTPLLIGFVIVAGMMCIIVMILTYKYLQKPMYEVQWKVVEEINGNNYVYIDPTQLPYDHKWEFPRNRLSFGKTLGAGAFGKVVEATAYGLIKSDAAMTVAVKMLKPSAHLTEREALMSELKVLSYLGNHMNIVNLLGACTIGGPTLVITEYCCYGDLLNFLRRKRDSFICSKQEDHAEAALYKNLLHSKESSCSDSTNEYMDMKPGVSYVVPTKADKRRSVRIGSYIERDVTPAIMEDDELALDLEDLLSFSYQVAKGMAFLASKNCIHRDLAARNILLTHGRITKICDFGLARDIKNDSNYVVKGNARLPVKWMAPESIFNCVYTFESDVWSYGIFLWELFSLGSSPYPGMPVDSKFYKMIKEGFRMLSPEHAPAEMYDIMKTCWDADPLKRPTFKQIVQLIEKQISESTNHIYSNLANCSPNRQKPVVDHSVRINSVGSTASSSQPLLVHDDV

**Q.** With CNc1ncc2cc(-c3cc(NC(=O)NCCC(C)(C)C)c(F)cc3F)c(C)nc2n1 [Example 1, 1-(2,4-Difluoro-5-(7-methyl-2-(methylamino)pyrido[2,3-d]pyrimidin-6-yl)phenyl)-3-(3,3-dimethylbutyl)urea] as the compound, how does the IC50 (Sk-Mel-2 cells) read?
**A.** 100 to 1000 nM

**Q.** And the IC50 (HT-29 cells)?
**A.** < 100 nM

**Q.** What about the IC50 (HCT-116 cells) of the same compound?
**A.** 100 to 1000 nM

**Q.** What about the IC50 (human wild type C-Raf) of the same compound?
**A.** < 150 nM

**Q.** And the IC50 (human wild type c-KIT)?
**A.** < 150 nM

**Q.** CNc1ncc2cc(-c3ccc(F)c(NC(=O)NCCC(C)(C)C)c3)c(C)nc2n1 [Example 2, 1-(3,3-Dimethylbutyl)-3-(2-fluoro-5-(7-methyl-2-(methylamino)pyrido[2,3-d]pyrimidin-6-yl)phenyl)urea] was tested. Which IC50 (Sk-Mel-2 cells) did it give?
**A.** < 100 nM

**Q.** What about the IC50 (HT-29 cells) of the same compound?
**A.** < 100 nM

**Q.** And the IC50 (HCT-116 cells)?
**A.** 100 to 1000 nM

**Q.** What about the IC50 (human wild type C-Raf) of the same compound?
**A.** < 150 nM

**Q.** What about the IC50 (human wild type c-KIT) of the same compound?
**A.** < 150 nM

**Q.** What does the source list for CNc1ncc2cc(-c3cc(NC(=O)NCCC(C)(C)C#N)c(F)cc3C)c(C)nc2n1 [Example 3, 1-(3-Cyano-3-methylbutyl)-3-(2-fluoro-4-methyl-5-(7-methyl-2-(methylamino)pyrido[2,3-d]pyrimidin-6-yl)phenyl)urea]?
**A.** IC50 (Sk-Mel-2 cells): 100 to 1000 nM; IC50 (HT-29 cells): < 100 nM; IC50 (HCT-116 cells): 100 to 1000 nM; IC50 (human wild type C-Raf): < 150 nM; IC50 (human wild type c-KIT): < 150 nM

**Q.** For COCCNc1ncc2cc(-c3cc(NC(=O)NCCC(C)(C)C)c(F)cc3C)c(C)nc2n1 [Example 5, 1-(3,3-Dimethylbutyl)-3-(2-fluoro-5-(2-((2-methoxyethyl)amino)-7-methylpyrido[2,3-d]pyrimidin-6-yl)-4-methylphenyl)urea], which IC50 (Sk-Mel-2 cells) is on record?
**A.** 100 to 1000 nM

**Q.** And the IC50 (HT-29 cells)?
**A.** < 100 nM

**Q.** And the IC50 (HCT-116 cells)?
**A.** 100 to 1000 nM

**Q.** What about the IC50 (human wild type C-Raf) of the same compound?
**A.** < 150 nM

**Q.** What about the IC50 (human wild type c-KIT) of the same compound?
**A.** < 150 nM

**Q.** Which IC50 (Sk-Mel-2 cells) does the source give for CNc1ncc2cc(-c3cc(NC(=O)NC4CC(C)(C)C4)c(F)cc3C)c(C)nc2n1 [Example 6, 1-(3,3-Dimethylcyclobutyl)-3-(2-fluoro-4-methyl-5-(7-methyl-2-(methylamino)pyrido[2,3-d]pyrimidin-6-yl)phenyl)urea] here?
**A.** < 100 nM

**Q.** And the IC50 (HT-29 cells)?
**A.** < 100 nM

**Q.** What about the IC50 (HCT-116 cells) of the same compound?
**A.** 100 to 1000 nM

**Q.** What about the IC50 (human wild type C-Raf) of the same compound?
**A.** < 150 nM

**Q.** And the IC50 (human wild type c-KIT)?
**A.** < 150 nM

**Q.** For CNc1ncc2cc(-c3cc(NC(=O)NC4CC(C)(C)C4)c(F)cc3F)c(C)nc2n1 [Example 7, 1-(2,4-Difluoro-5-(7-methyl-2-(methylamino)pyrido[2,3-d]pyrimidin-6-yl)phenyl)-3-(3,3-dimethylcyclobutyl)urea], which IC50 (Sk-Mel-2 cells) is on record?
**A.** < 100 nM

**Q.** And the IC50 (HT-29 cells)?
**A.** < 100 nM

**Q.** And the IC50 (HCT-116 cells)?
**A.** 100 to 1000 nM

**Q.** What about the IC50 (human wild type C-Raf) of the same compound?
**A.** < 150 nM

**Q.** And the IC50 (human wild type c-KIT)?
**A.** < 150 nM

**Q.** For CNc1ncc2cc(-c3cc(NC(=O)NCC(O)C(C)(C)C)c(F)cc3C)cnc2n1 (centres unmarked) [Example 8, 1-[2-Fluoro-4-methyl-5-(2-methylaminopyrido[2,3-d]pyrimidin-6-yl)phenyl]-3-(2-hydroxy-3,3-dimethyl-butyl)urea], which IC50 (Sk-Mel-2 cells) is on record?
**A.** 100 to 1000 nM

**Q.** And the IC50 (HT-29 cells)?
**A.** 100 to 1000 nM

**Q.** And the IC50 (HCT-116 cells)?
**A.** 1000 to 10000 nM

**Q.** What about the IC50 (human wild type C-Raf) of the same compound?
**A.** < 150 nM

**Q.** What about the IC50 (human wild type c-KIT) of the same compound?
**A.** < 150 nM
